Source: patent publication US20050014706A1, “Method of treating tuberculosis” (priority 2003, published 2005)
Values after ≈ are worked out from the molar mass of the structure shown. Like-named read-outs stand apart in the source and are kept apart here.

Assays:
[1] = tested on: M. tuberculosis; test: Activity against M. tuberculosis in mice (follow-up, dose response); type: in vivo
[2] = tested on: M. tuberculosis H37Rv; test: MIC vs. M. tuberculosis H37Rv, microplate Alamar Blue assay (MABA); type: cell-based; settings: for MIC / activity vs. M. tuberculosis in words: in vitro; for enhancement in potency of macrolide over counterpart ketolide: vs. telithromycin, RU004, RU56006 respectively
[3] = tested on: VERO cells; test: Cytotoxicity against VERO cells (MTS, 72 hours); settings: for IC50: read-out: Vero IC50 (toxicity)
[4] = Overt toxicity in mice, escalating 5-day cycles; type: in vivo, Balb/C mice; settings: once daily 5-day cycles, sequentially 200, 300, 400, 500 mg/kg
Description: Prior to assessing in vivo efficacy, RU66252 and RU69874 were administered to pairs of female Balb/C mice once daily for 5-day cycles, and observed for overt signs of toxicity (e.g., weight loss, ruffled fur, and huddling), after which the mice were rested for 1 or 2 days. Then the dosage was increased for another 5-day cycle. Overall, the same mice received sequentially for 5 days: 200, 300, 400, and 500 mg/kg.

[5] = tested on: M. tuberculosis Erdman; type: in vivo, BALB/c mice
[6] = tested on: tubercle bacillus; settings: literature; cited from earlier work
[7] = tested on: tubercle bacillus; settings: literature (Luna-Herrera 1995; Truffot-Pernot 1995); cited from earlier work
[8] = tested on: J774.1 macrophage cell line; test: Cytotoxicity against J774.1 macrophage cell line; type: cell-based, murine; settings: Mus musculus, J774.1; Table 1a, J774 cells; read-out: J774 IC50 (toxicity)
[9] = tested on: VERO cells
[10] = tested on: M. tuberculosis H37Rv; settings: positive quality control, MABA; cited from earlier work

SMILES: CC[C@H]1OC(=O)[C@H](C)C(OC2CC(C)(OC)[C@@H](O)[C@H](C)O2)[C@H](C)[C@@H](O[C@@H]2O[C@H](C)C[C@H](N(C)C)[C@H]2O)[C@](C)(OC)C[C@@H](C)C(=O)[C@H](C)[C@H]2N(NCCCc3ccnc4ccccc34)C(=O)O[C@]12C (stereo partly shown) [RU66252]
- M. tuberculosis inhibition in mice ([1]; 150 mg/kg and 200 mg/kg): significant
- dose response in mice ([1]; between 50 and 200 mg/kg): shows a dose response
- activity against M. tuberculosis in mice ([1]; mice): active
- MIC ([2]; Table 1a, 11,12-carbamate derivatives, read-out: Anti-TB Activity MIC): 0.25 µM (≈ 0.239 µg/mL)
- MIC ([2]; Table 3, parallel-synthesis carbazate library products): 9 µM (≈ 8.61 µg/mL)
- MIC vs. M. tuberculosis ([2]; follow-up assays): about 9 μM
- MIC / activity vs. M. tuberculosis in words [2]: very low
- MIC ([2]; read-out: minimum inhibitory concentration (MIC) against M. tuberculosis): 0.25 µM (≈ 0.239 µg/mL)
- enhancement in potency of macrolide over counterpart ketolide [2]: 16 fold
- toxicity / cytotoxicity in words ([3]; in vitro study): comparable to clarithromycin
- overt signs of toxicity (weight loss, ruffled fur, huddling) [4]: No signs of overt toxicity
- colonies from treated mouse lung homogenates ([5]; 10^−2 dilution plates): no colonies
- activity against M. tuberculosis in the acute phase of infection ([5]; […], 100 and 200 mg/kg qd (RU60887 100 mg/kg only)): dose-dependent activity

SMILES: CC[C@H]1OC(=O)[C@H](C)[C@@H](O[C@H]2C[C@@](C)(OC)[C@@H](O)[C@H](C)O2)[C@H](C)[C@@H](O[C@@H]2O[C@H](C)C[C@H](N(C)C)[C@H]2O)[C@](C)(OC)C[C@@H](C)C(=O)[C@H](C)[C@@H](O)[C@]1(C)O [Clarithromycin, reference compound]
- MIC against the tubercle bacillus [6]: 4 to 64 µg/mL
- MIC ([2]; Table 2a, 11,12-diols, read-out: Anti-TB Activity MIC): 8 µM (≈ 5.98 µg/mL)
- enhancement in potency of macrolide over counterpart ketolide [2]: 16 fold
- IC50 ([3]; Table 2a, Vero cells): 41 µM
- activity in mouse models [7]: marginal and nil

SMILES: CC[C@H]1OC(=O)[C@@](C)(F)C(=O)[C@H](C)[C@@H](O[C@@H]2O[C@H](C)C[C@H](N(C)C)[C@H]2O)[C@](C)(OCC#Cc2cc(-c3cnc4ccccc4c3)no2)C[C@@H](C)C(=O)[C@H](C)[C@H]2NC(=O)O[C@@]21C [Compound A323348]
- MIC ([2]; Mycobacterium tuberculosis, H37RV, Table 1a, 11,12-carbamate derivatives, read-out: Anti-TB Activity MIC): 0.38 µM (≈ 0.323 µg/mL)
- MIC ([2]; Mycobacterium tuberculosis, H37RV, read-out: minimum inhibitory concentration (MIC) against M. tuberculosis): 0.38 µM (≈ 0.323 µg/mL)
- MIC / activity vs. M. tuberculosis in words [2]: very low
- IC50 ([3]; Chlorocebus sabaeus, Vero): 24.3 µM
- IC50 [8]: 15.3 µM
- toxicity / cytotoxicity in words [9]: comparable to clarithromycin

SMILES: NNC(=O)c1ccncc1 [Isoniazid]
- expected MIC range of quality control compound [10]: 0.025 to 0.1 µg/mL
